PubChem BioAssay AID328 (DTP/NCI, 2004)
Several values for one entry are separate records, joined by “and”; a condition that tells them apart may be missing. Equal values may be shown once. Inconclusive results and toxic doses are left out. How the source made its calls: active means survival T/C of 150% or more; inactive means T/C below 125% in these data.

System: BDF1 mice, P388 leukemia ip, median survival T/C
Test: NCI In Vivo Anticancer Drug Screen. Data for tumor model P388 Leukemia (intraperitoneal) in B6D2F1 (BDF1) mice
Settings: endpoint: median survival time, higher = longer survival
How it was run: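 Compound-treated tumour-bearing mice were compared with vehicle-treated controls. Survival was recorded, and the value is the treated-group measurement divided by the control-group measurement (T/C).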

[1] = dose: 25.0 mg/kg/injection, schedule: Q04DX003 (ip), vehicle: water
[2] = dose: 50.0 mg/kg/injection, schedule: Q04DX003 (ip), vehicle: water
[3] = dose: 100.0 mg/kg/injection, schedule: Q04DX003 (ip), vehicle: water
[4] = dose: 200.0 mg/kg/injection, schedule: Q04DX003 (ip), vehicle: water
[5] = dose: 400.0 mg/kg/injection, schedule: Q04DX003 (ip), vehicle: water
[6] = dose: 100.0 mg/kg/injection, schedule: Q01DX009 (ip), vehicle: saline with Tween-80
[7] = dose: 100.0 mg/kg/injection, schedule: Q04DX003 (ip), vehicle: saline with Tween-80
[8] = dose: 200.0 mg/kg/injection, schedule: Q01DX009 (ip), vehicle: saline with Tween-80
[9] = dose: 200.0 mg/kg/injection, schedule: Q04DX003 (ip), vehicle: saline with Tween-80
[10] = dose: 400.0 mg/kg/injection, schedule: Q04DX003 (ip), vehicle: saline with Tween-80
[11] = dose: 10.0 mg/kg/injection, schedule: Q04DX003 (ip), vehicle: saline
[12] = dose: 20.0 mg/kg/injection, schedule: Q04DX003 (ip), vehicle: saline
[13] = dose: 40.0 mg/kg/injection, schedule: Q04DX003 (ip), vehicle: saline
[14] = dose: 25.0 mg/kg/injection, schedule: Q01DX009 (ip), vehicle: saline with Tween-80
[15] = dose: 50.0 mg/kg/injection, schedule: Q01DX009 (ip), vehicle: saline with Tween-80
[16] = dose: 100.0 mg/kg/injection, schedule: Q01DX001 (ip), vehicle: saline with Tween-80
[17] = dose: 200.0 mg/kg/injection, schedule: Q01DX001 (ip), vehicle: saline with Tween-80
[18] = dose: 400.0 mg/kg/injection, schedule: Q01DX001 (ip), vehicle: saline with Tween-80
[19] = dose: 400.0 mg/kg/injection, schedule: Q01DX009 (ip), vehicle: saline with Tween-80

Measured: T/C

CCOC(=O)C(C)Oc1ccc(Cl)cc1 (stereo not drawn)
inactive: [1] 106 % of control | [2] 101 % of control | [3] 113 % of control | [4] 112 % of control | [5] 106 % of control

CCCCCCSc1ncnc2nc[nH]c12
inactive: [6] 109 % of control | [7] 100 % of control | [8] 100 % of control | [9] 100 % of control | [10] 95 % of control

CCc1c(/C=C2/OC(=O)NC2=O)[nH]c(=S)[nH]c1=O
inactive: [7] 100 % of control | [9] 91 % of control | [10] 104 % of control

COc1c(Br)cc(Br)cc1Br
inactive: dose: 100.0 mg/kg/injection, schedule: Q04DX003 (ip), vehicle: Klucel (hydroxypropylcellulose) (HPC) 108 % of control | dose: 200.0 mg/kg/injection, schedule: Q04DX003 (ip), vehicle: Klucel (hydroxypropylcellulose) (HPC) 100 % of control | dose: 400.0 mg/kg/injection, schedule: Q04DX003 (ip), vehicle: Klucel (hydroxypropylcellulose) (HPC) 100 % of control

CN(C)CC#N
inactive: [11] 108 % of control | [12] 91 % of control | [13] 95 % of control

O=Cc1nc2ccccc2[nH]1
inactive: dose: 12.5 mg/kg/injection, schedule: Q01DX009 (ip), vehicle: saline with Tween-80 108 % of control | [14] 101 % of control | [15] 103 % of control | [6] 111 % of control

CCOC(=O)C(=CN1CCCCCC1)C(=O)OCC
inactive: [7] 109 % of control | [9] 109 % of control | [10] 113 % of control

c1ccc(C[n+]2ccc(-c3cc[n+](Cc4ccccc4)cc3)cc2)cc1
inactive: dose: 1.25 mg/kg/injection, schedule: Q01DX010 (ip), vehicle: saline 86 % of control | dose: 156.0 micrograms/kg/injection, schedule: Q01DX010 (ip), vehicle: saline 104 % of control | dose: 313.0 micrograms/kg/injection, schedule: Q01DX010 (ip), vehicle: saline 104 % of control | dose: 625.0 micrograms/kg/injection, schedule: Q01DX010 (ip), vehicle: saline 104 % of control

Cc1ccc2nc(-c3ccccc3N)[nH]c2c1
inactive: [7] 100 % of control | [9] 104 % of control | [10] 90 % of control

CCCCCCCCCCCCCCCCCOc1ccc(I)cc1
inactive: dose: 50.0 mg/kg/injection, schedule: Q01DX001 (ip), vehicle: saline with Tween-80 95 % of control | [16] 100 % of control | [17] 90 % of control

COc1cccc2c1C(=O)c1c(O)c3c(c(O)c1C2=O)CC(O)(C(=O)C(C)C)CC3OC1CC(N)C(O)C(C)O1 (stereo not drawn)
inactive: dose: 9.4 mg/kg/injection, schedule: Q04DX003 (ip), vehicle: water 107 % of control | dose: 18.8 mg/kg/injection, schedule: Q04DX003 (ip), vehicle: water 107 % of control | dose: 37.5 mg/kg/injection, schedule: Q04DX003 (ip), vehicle: water 116 % of control | dose: 75.0 mg/kg/injection, schedule: Q04DX003 (ip), vehicle: water 90 % of control

CCOC(=O)c1cnn(C)c1N
inactive: [14] 93 % of control | [1] 109 % of control | [15] 102 % of control | [2] 99 % of control | [6] 100 % of control | [3] 114 % of control | [4] 91 % of control | [5] 116 % of control

C/C(CC(=O)O)=C(\C)C(=O)O
inactive: dose: 25.0 mg/kg/injection, schedule: Q01DX009 (ip), vehicle: water 100 % of control | dose: 50.0 mg/kg/injection, schedule: Q01DX009 (ip), vehicle: water 100 % of control | dose: 100.0 mg/kg/injection, schedule: Q01DX001 (ip), vehicle: saline 96 % of control | dose: 100.0 mg/kg/injection, schedule: Q01DX009 (ip), vehicle: water 97 % of control and 103 % of control | [3] 108 % of control | dose: 200.0 mg/kg/injection, schedule: Q01DX001 (ip), vehicle: saline 100 % of control | dose: 200.0 mg/kg/injection, schedule: Q01DX009 (ip), vehicle: water 112 % of control | dose: 400.0 mg/kg/injection, schedule: Q01DX001 (ip), vehicle: saline 100 % of control | dose: 400.0 mg/kg/injection, schedule: Q01DX009 (ip), vehicle: water 105 % of control

O=S1(=O)CC(S(=O)(=O)c2ccccc2)C1
inactive: [16] 99 % of control | [17] 103 % of control | [18] 100 % of control

CC(=O)c1ccc2ccccc2c1OC(=O)c1cccnc1
inactive: dose: 50.0 mg/kg/injection, schedule: Q01DX009 (ip), vehicle: other 100 % of control | dose: 100.0 mg/kg/injection, schedule: Q01DX009 (ip), vehicle: other 109 % of control | dose: 200.0 mg/kg/injection, schedule: Q01DX009 (ip), vehicle: other 118 % of control

O=C(Nc1ccccc1C(F)(F)F)Nc1cccc2ccccc12
inactive: [17] 90 % of control | [18] 86 % of control

C/C(=N/N=C(N)N)c1ccc(NC(=O)Nc2ccc(/C(C)=N/N=C(N)N)cc2)cc1
active: dose: 66.0 mg/kg/injection, schedule: Q04DX003 (ip), vehicle: saline with Tween-80 154 % of control | [7] 150 % of control | dose: 150.0 mg/kg/injection, schedule: Q04DX003 (ip), vehicle: saline with Tween-80 159 % of control
inactive: [6] 90 % of control

NNC(=O)c1cnccn1
inactive: dose: 40.0 mg/kg/injection, schedule: Q01DX010 (ip), vehicle: water 100 % of control | dose: 60.0 mg/kg/injection, schedule: Q01DX010 (ip), vehicle: water 100 % of control | dose: 80.0 mg/kg/injection, schedule: Q01DX010 (ip), vehicle: water 100 % of control and 109 % of control

NC1CCC(CCCC2CCCC2)CC1 (stereo not drawn)
inactive: dose: 25.0 mg/kg/injection, schedule: Q01DX009 (ip), vehicle: Klucel (hydroxypropylcellulose) (HPC) 101 % of control | dose: 50.0 mg/kg/injection, schedule: Q01DX009 (ip), vehicle: Klucel (hydroxypropylcellulose) (HPC) 110 % of control

N#CCCSC(=S)C1CCCC1=N (stereo not drawn)
inactive: [6] 112 % of control | [8] 102 % of control

[NH-]S(=O)(=O)O.[NH-]S(=O)(=O)O.[NH2-].[NH2-].[Pt+4]
inactive: dose: 10.0 mg/kg/injection, schedule: Q01DX009 (ip), vehicle: saline with Tween-80 90 % of control | [11] 100 % of control | dose: 20.0 mg/kg/injection, schedule: Q01DX009 (ip), vehicle: saline with Tween-80 100 % of control | [12] 100 % of control | dose: 40.0 mg/kg/injection, schedule: Q01DX009 (ip), vehicle: saline with Tween-80 90 % of control | [13] 108 % of control

c1ccc2c[n+](CCCCCCCCCC[n+]3ccc4ccccc4c3)ccc2c1
inactive: dose: 1.0 mg/kg/injection, schedule: Q01DX009 (ip), vehicle: saline 104 % of control | dose: 2.0 mg/kg/injection, schedule: Q01DX009 (ip), vehicle: saline 113 % of control | dose: 2.5 mg/kg/injection, schedule: Q01DX009 (ip), vehicle: saline 110 % of control and 115 % of control | dose: 2.6 mg/kg/injection, schedule: Q01DX009 (ip), vehicle: saline 120 % of control | dose: 4.0 mg/kg/injection, schedule: Q01DX009 (ip), vehicle: saline 110 % of control | dose: 5.0 mg/kg/injection, schedule: Q01DX009 (ip), vehicle: saline 107 % of control | dose: 10.0 mg/kg/injection, schedule: Q01DX009 (ip), vehicle: saline 103 % of control and 112 % of control

NC(=O)c1nccnc1Cl
inactive: [15] 110 % of control | dose: 50.0 mg/kg/injection, schedule: Q04DX003 (ip), vehicle: saline with Tween-80 101 % of control | [6] 98 % of control | [7] 102 % of control and 111 % of control | [8] 91 % of control | [9] 88 % of control and 104 % of control | [10] 92 % of control and 101 % of control

O=C1c2ccccc2C(=O)c2c(O)ccc(O)c21
inactive: [6] 104 % of control | [8] 109 % of control | [19] 109 % of control

CCOC(=O)CC(C)(N)NC(N)=O (stereo not drawn)
inactive: [16] 110 % of control | [6] 115 % of control | dose: 100.0 mg/kg/injection, schedule: Q04DX003 (ip), vehicle: alcohol 110 % of control | [17] 95 % of control | [8] 105 % of control | dose: 200.0 mg/kg/injection, schedule: Q04DX003 (ip), vehicle: alcohol 105 % of control | [18] 110 % of control | [19] 105 % of control | dose: 400.0 mg/kg/injection, schedule: Q04DX003 (ip), vehicle: alcohol 110 % of control
